According to patent publication US9540314B2, “N-cycloalkyl-N-[(cycloalkenylphenyl)methylene]-(thio) carboxamide derivatives” (BAYER INTELLECTUAL PROPERTY GMBH, priority 2012, dated 2017):

Assays:
Pyrenophora teres = test: In vivo preventive test on Pyrenophora teres (barley); details: 500 ppm of active ingredient; barley plants, preventive spray; grading 14 days after contamination
Method: (§1) The active ingredients tested are prepared by homogenization in a mixture of acetone/tween/DMSO, and then diluted with water to obtain the desired active material concentration.
Barley plants (“Plaisant” variety), sown in starter cups on a 50/50 peat soil pozzolana substrate and grown at 22° C., are treated at the 1 leaf stage (10 cm height) by spraying with the active ingredient prepared as described above. Plants, used as controls, are treated with the mixture of acetone/tween/DMSO/water not containing the active material.
After 24 hours, the plants are contaminated by spraying the leaves with an aqueous suspension of Pyrenophora teres spores (12 000 spores per mL). The spores are collected from a 12-day-old culture.
The contaminated barley plants are incubated for 48 hours at 20° C. and at 100% relative humidity, and then for 12 days at 20° C. at 70-80% relative humidity.
Grading (% of efficacy) is carried out 14 days after the contamination, in comparison with the control plants.
Under these conditions, good (at least 70%) to total protection is observed at a dose of 500 ppm of active ingredient with the following compounds from table H1: […]

Uromyces appendiculatus = test: In vivo preventive test on Uromyces appendiculatus (bean rust); details: 500 ppm of active ingredient; bean plants, preventive spray; grading 11 days after contamination (table K1)
Method: as §1
(§2) After 24 hours, the plants are contaminated by spraying the leaves with an aqueous suspension of Uromyces appendiculatus spores (150 000 spores per mL). The spores are collected from infected plants and are suspended in water containing 2.5 mL/L of Tween 80 at 10%. The contaminated bean plants are incubated for 24 hours at 20° C. and at 100% relative humidity, and then for 10 days at 20° C. and at 70-80% relative humidity.
Grading (% of efficacy) is carried out 11 days after the contamination, in comparison with the control plants.

Alternaria brassicae = test: In vivo preventive test on Alternaria brassicae (leaf spot on radish); details: Table C1, 500 ppm, radish plants, grading 6 days after contamination
Method: as §1
Radish plants (“Pernod Clair” variety), sown in starter cups on a 50/50 peat soil pozzolana substrate and grown at 17° C., are treated at the cotyledon stage by spraying with the active ingredient prepared as described above. Plants, used as controls, are treated with the mixture of acetone/tween/DMSO/water not containing the active material.
After 24 hours, the plants are contaminated by spraying the cotyledons with an aqueous suspension of Alternaria brassicae spores (50 000 spores per mL). The spores are collected from a 15-day-old culture.
The contaminated radish plants are incubated at 20° C. and at 100% relative humidity.
Grading (% of efficacy) is carried out 6 days after the contamination, in comparison with the control plants.
Under these conditions, high (at least 80%) to excellent (at least 90%) protection is observed at a dose of 500 ppm of active ingredient with the following compounds from table C1: […]

Puccinia recondita = test: In vivo preventive test on Puccinia recondita (brown rust on wheat); details: 500 ppm of active ingredient; wheat plants, preventive spray; grading 12 days after contamination
Method: as §1
(§3) Wheat plants (“Scipion” variety), sown in starter cups on a 50/50 peat soil pozzolana substrate and grown at 22° C., are treated at the 1 leaf stage (10 cm height) by spraying with the active ingredient prepared as described above. Plants, used as controls, are treated with the mixture of acetone/tween/DMSO/water not containing the active material.
as §2, with “of Puccinia recondita” for “of Uromyces appendiculatus”, “spores (100” for “spores (150”, “from an” for “from”, “infected plant” for “infected plants”, “contaminated wheat” for “contaminated bean”
(§4) Grading (% of efficacy) is carried out 12 days after the contamination, in comparison with the control plants.
Under these conditions, good (at least 70%) to total protection is observed at a dose of 500 ppm of active ingredient with the following compounds from table I: […]

[1] = log P by HPLC on a reversed-phase column (C 18), EEC Directive 79/831 Annex V.A8; assay type: physicochemical; details: Table 1; HPLC C 18, 40° C., 0.1% aqueous formic acid and acetonitrile; several values = mixture of 2 or more isomers
Method: In table 1, the log P values were determined in accordance with EEC Directive 79/831 Annex V.A8 by HPLC (High Performance Liquid Chromatography) on a reversed-phase column (C 18), using the method described below:
Temperature: 40° C.; Mobile phases: 0.1% aqueous formic acid and acetonitrile; linear gradient from 10% acetonitrile to 90% acetonitrile.
Calibration was carried out using unbranched alkan-2-ones (comprising 3 to 16 carbon atoms) with known log P values (determination of the log P values by the retention times using linear interpolation between two successive alkanones). lambda-max-values were determined using UV-spectra from 200 nm to 400 nm and the peak values of the chromatographic signals.

Septoria tritici = test: In vivo preventive test on Septoria tritici (wheat); details: 500 ppm of active ingredient; wheat plants, preventive spray; grading 24 days after contamination
Method: as §1, §3
After 24 hours, the plants are contaminated by spraying the leaves with an aqueous suspension of cryopreserved Septoria tritici spores (500 000 spores per mL). The contaminated wheat plants are incubated for 72 hours at 18° C. and at 100% relative humidity, and then for 21 days at 90% relative humidity.
Grading (% of efficacy) is carried out 24 days after the contamination, in comparison with the control plants.
Under these conditions, good (at least 70%) to total protection is observed at a dose of 500 ppm of active ingredient with the following compounds from table J: […]

Sphaerotheca fuliginea = test: In vivo preventive test on Sphaerotheca fuliginea (powdery mildew on cucurbits); details: 500 ppm, gherkin plants, grading 12 days after contamination
Method: The active ingredients tested are prepared by homogenization in a mixture of acetone/tween/DMSO and then diluted with water to obtain the desired active material concentration.
Gherkin plants (“Vert petit de Paris” variety), sown in starter cups on a 50/50 peat soil-pozzolana substrate and grown at 24° C., are treated at the Z11 cotyledon stage by spraying with the active ingredient prepared as described above. Plants, used as controls, are treated with the mixture of acetone/tween/DMSO/water not containing the active material.
After 24 hours, the plants are contaminated by spraying the cotyledons with an aqueous suspension of Sphaerotheca fuliginea spores (100 000 spores per mL). The spores are collected from infected plants. The contaminated gherkin plants are incubated at about 20° C. and at 70-80% relative humidity.
as §4
Under these conditions, good (at least 70%) to total protection is observed at a dose of 500 ppm of active ingredient with the following compounds from table A: […]

SMILES	Efficacy (Pyrenophora teres) [%]	Efficacy (Uromyces appendiculatus) [%]	Efficacy (Alternaria brassicae) [%]	Efficacy (Puccinia recondita) [%]	logP [1]	Efficacy (Septoria tritici) [%]	Efficacy (Sphaerotheca fuliginea) [%]
CC1CC=C(c2ccccc2C(C)N(C(=O)c2c(C(F)F)nn(C)c2F)C2CC2)CC1 (mixture of isomers) [I.45]	97	75	98	81	5.03	100	100
Cn1nc(C(F)F)c(C(=O)N(Cc2c(C(F)(F)F)ccc(C3=CCCC3)c2F)C2CC2)c1F [I.7]	86	98	80	81	4.81	97	100
Cn1nc(C(F)F)c(C(=O)N(Cc2c(C3=CCCC3)ccc(F)c2F)C2CC2)c1F [I.19]	93	100	96	98	4.11	97	100
